# Experimental data: patent US20220169632A1, “METHODS AND MATERIALS FOR INCREASING OR MAINTAINING NICOTINAMIDE MONONUCLEOTIDE ADENYLYL TRANSFERASE-2 (NMNAT2) POLYPEPTIDE LEVELS” (University of Pittsburgh - Of the Commonwealth System of …, priority 2019, published 2022)
# System: NMNAT2
# Assay: NMNAT2-Hibit nano-luciferase activity in stably transfected U87MG cells, various concentrations, 24 hours
# Assay type: cell-based
# Conditions: U87MG cells stably transfected with NMNAT2-Hibit luc plasmid
# Experimental: Selected compounds were tested in vitro. U87MG cells were stably transfected with NMNAT2-Hibit luc plasmid. Cells were treated with a test compound at various concentrations for 24 hours. Cells were then collected and assayed for nano-luciferase activity.
row,Structure (SMILES),E: compound efficacy for NMNAT2 activation (concentration giving >25% increase in NMNAT2 luciferase activity)
1,Cc1cccc(CNC(=O)CCCc2cn(Cc3ccccc3C)c3ccccc23)c1 [BC20154],+ (“+” >25% increase in NMNAT2 luciferase activity at >25 μM.)
2,COc1ccccc1CNC(=O)CCCc1cn(Cc2ccccc2C)c2ccccc12 [BC20155],++ (“++” >25% increase in NMNAT2 luciferase activity at >1 μM ≤25 μM.)
3,COc1cccc(CNC(=O)CCCc2cn(Cc3ccccc3C)c3ccccc23)c1 [BC20156],++ (“++” >25% increase in NMNAT2 luciferase activity at >1 μM ≤25 μM.)
4,Cc1ccccc1Cn1cc(CCCC(=O)N(CCCN2CCOCC2)Cc2ccco2)c2ccccc21 [BC20157],+++ (“+++” >25% increase in NMNAT2 luciferase activity at ≤1 μM.)
5,Cc1ccccc1Cn1cc(CCCC(=O)N2CCN(C(=O)c3ccco3)CC2)c2ccccc21 [BC20158],++ (“++” >25% increase in NMNAT2 luciferase activity at >1 μM ≤25 μM.)
6,Cc1ccccc1Cn1cc(CCCC(=O)NC(C)Cc2ccco2)c2ccccc21 (centres unmarked) [BC20159],++ (“++” >25% increase in NMNAT2 luciferase activity at >1 μM ≤25 μM.)
7,Cc1ccccc1Cn1cc(CCCC(=O)NCc2ccncc2)c2ccccc21 [BC20160],++ (“++” >25% increase in NMNAT2 luciferase activity at >1 μM ≤25 μM.)
8,Cc1ccccc1Cn1cc(CCCC(=O)Nc2cccc(C)c2C)c2ccccc21 [BC20161],++ (“++” >25% increase in NMNAT2 luciferase activity at >1 μM ≤25 μM.)
9,CCCCN(CC)Cc1ccc(CNC(=O)CCCc2cn(Cc3ccccc3C)c3ccccc23)o1 [BC20162],+++ (“+++” >25% increase in NMNAT2 luciferase activity at ≤1 μM.)
10,Cc1cccc(Cn2cc(CCCC(=O)NCc3ccco3)c3ccccc32)c1 [BC20163],+++ (“+++” >25% increase in NMNAT2 luciferase activity at ≤1 μM.)
11,Cc1cccc(Cn2cc(CCCC(=O)NCc3ccc(C)o3)c3ccccc32)c1 [BC20164],+++ (“+++” >25% increase in NMNAT2 luciferase activity at ≤1 μM.)
12,Cc1cccc(Cn2cc(CCCC(=O)NCc3ccccc3F)c3ccccc32)c1 [BC20165],+++ (“+++” >25% increase in NMNAT2 luciferase activity at ≤1 μM.)
13,Cc1cccc(Cn2cc(CCCC(=O)NCc3cccc(F)c3)c3ccccc32)c1 [BC20166],++ (“++” >25% increase in NMNAT2 luciferase activity at >1 μM ≤25 μM.)
14,Cc1cccc(Cn2cc(CCCC(=O)NCc3ccccc3C)c3ccccc32)c1 [BC20167],+++ (“+++” >25% increase in NMNAT2 luciferase activity at ≤1 μM.)
15,Cc1cccc(CNC(=O)CCCc2cn(Cc3cccc(C)c3)c3ccccc23)c1 [BC20168],++ (“++” >25% increase in NMNAT2 luciferase activity at >1 μM ≤25 μM.)
16,COc1cccc(CNC(=O)CCCc2cn(Cc3cccc(C)c3)c3ccccc23)c1 [BC20169],++ (“++” >25% increase in NMNAT2 luciferase activity at >1 μM ≤25 μM.)
17,Cc1cccc(Cn2cc(CCCC(=O)N3CCN(C(=O)c4ccco4)CC3)c3ccccc32)c1 [BC20170],++ (“++” >25% increase in NMNAT2 luciferase activity at >1 μM ≤25 μM.)
18,Cc1cccc(Cn2cc(CCCC(=O)NC(C)Cc3ccco3)c3ccccc32)c1 (centres unmarked) [BC20171],+++ (“+++” >25% increase in NMNAT2 luciferase activity at ≤1 μM.)
19,Cc1cccc(Cn2cc(CCCC(=O)NCCc3ccccc3)c3ccccc32)c1 [BC20172],++ (“++” >25% increase in NMNAT2 luciferase activity at >1 μM ≤25 μM.)
20,Cc1cccc(Cn2cc(CCCC(=O)NCc3cccnc3)c3ccccc32)c1 [BC20173],++ (“++” >25% increase in NMNAT2 luciferase activity at >1 μM ≤25 μM.)
21,Cc1cccc(Cn2cc(CCCC(=O)NCc3ccncc3)c3ccccc32)c1 [BC20174],++ (“++” >25% increase in NMNAT2 luciferase activity at >1 μM ≤25 μM.)
22,Cc1cccc(Cn2cc(CCCC(=O)Nc3cccc(C)c3C)c3ccccc32)c1 [BC20175],++ (“++” >25% increase in NMNAT2 luciferase activity at >1 μM ≤25 μM.)
23,Cc1ccc(CNC(=O)Cn2cc(C(=O)c3ccc(Cl)cc3)c3ccccc32)o1 [BC20176],++ (“++” >25% increase in NMNAT2 luciferase activity at >1 μM ≤25 μM.)
24,O=C(Cn1cc(C(=O)c2ccc(Cl)cc2)c2ccccc21)NCc1ccccc1F [BC20177],+++ (“+++” >25% increase in NMNAT2 luciferase activity at ≤1 μM.)

row,Structure (SMILES),E: compound efficacy for NMNAT2 activation (concentration giving >25% increase in NMNAT2 luciferase activity)
1,Cc1ccccc1CNC(=O)Cn1cc(C(=O)c2ccc(Cl)cc2)c2ccccc21 [BC20178],++ (“++” >25% increase in NMNAT2 luciferase activity at >1 μM ≤25 μM.)
2,Cc1cccc(CNC(=O)Cn2cc(C(=O)c3ccc(Cl)cc3)c3ccccc32)c1 [BC20179],++ (“++” >25% increase in NMNAT2 luciferase activity at >1 μM ≤25 μM.)
3,COc1ccccc1CNC(=O)Cn1cc(C(=O)c2ccc(Cl)cc2)c2ccccc21 [BC20180],++ (“++” >25% increase in NMNAT2 luciferase activity at >1 μM ≤25 μM.)
4,COc1cccc(CNC(=O)Cn2cc(C(=O)c3ccc(Cl)cc3)c3ccccc32)c1 [BC20181],++ (“++” >25% increase in NMNAT2 luciferase activity at >1 μM ≤25 μM.)
5,O=C(c1ccc(Cl)cc1)c1cn(CC(=O)N2CCN(C(=O)c3ccco3)CC2)c2ccccc12 [BC20182],+ (“+” >25% increase in NMNAT2 luciferase activity at >25 μM.)
6,Cc1ccc(C)c(Cn2c3c(c4ccccc42)CC(C(=O)NCc2ccc(C)o2)CC3)c1 (centres unmarked) [BC20183],+ (“+” >25% increase in NMNAT2 luciferase activity at >25 μM.)
7,Cc1ccc(C)c(Cn2c3c(c4ccccc42)CC(C(=O)NCc2cccc(F)c2)CC3)c1 (centres unmarked) [BC20184],+ (“+” >25% increase in NMNAT2 luciferase activity at >25 μM.)
8,Cc1ccc(C)c(Cn2c3c(c4ccccc42)CC(C(=O)NCc2ccccc2C)CC3)c1 (centres unmarked) [BC20185],++ (“++” >25% increase in NMNAT2 luciferase activity at >1 μM ≤25 μM.)
9,Cc1cccc(CNC(=O)C2CCc3c(c4ccccc4n3Cc3cc(C)ccc3C)C2)c1 (centres unmarked) [BC20186],+ (“+” >25% increase in NMNAT2 luciferase activity at >25 μM.)
10,COc1ccccc1CNC(=O)C1CCc2c(c3ccccc3n2Cc2cc(C)ccc2C)C1 (centres unmarked) [BC20187],+ (“+” >25% increase in NMNAT2 luciferase activity at >25 μM.)
11,COc1cccc(CNC(=O)C2CCc3c(c4ccccc4n3Cc3cc(C)ccc3C)C2)c1 (centres unmarked) [BC20188],++ (“++” >25% increase in NMNAT2 luciferase activity at >1 μM ≤25 μM.)
12,Cc1ccc(C)c(Cn2c3c(c4ccccc42)CC(C(=O)NCc2cccnc2)CC3)c1 (centres unmarked) [BC20189],++ (“++” >25% increase in NMNAT2 luciferase activity at >1 μM ≤25 μM.)
13,Cc1ccc(C)c(Cn2c3c(c4ccccc42)CC(C(=O)NCc2ccncc2)CC3)c1 (centres unmarked) [BC20190],+ (“+” >25% increase in NMNAT2 luciferase activity at >25 μM.)
14,Cc1ccc(Cn2cc(C3=CC(=O)NCC3)c3ccccc32)cc1 [BC20191],++ (“++” >25% increase in NMNAT2 luciferase activity at >1 μM ≤25 μM.)
15,Cc1ccc(Cn2cc(C3CCNC(=O)C3)c3ccccc32)cc1 (centres unmarked) [BC20192],++ (“++” >25% increase in NMNAT2 luciferase activity at >1 μM ≤25 μM.)
16,Cc1ccc(CNC(=O)c2ccc3c(c2)c(C)c(C)n3Cc2ccccc2F)o1 [BC20193],+ (“+” >25% increase in NMNAT2 luciferase activity at >25 μM.)
17,Cc1c(C)n(Cc2ccccc2F)c2ccc(C(=O)NCC3CCCO3)cc12 (centres unmarked) [BC20194],+ (“+” >25% increase in NMNAT2 luciferase activity at >25 μM.)
18,Cc1cccc(CNC(=O)c2ccc3c(c2)c(C)c(C)n3Cc2ccccc2F)c1 [BC20195],+ (“+” >25% increase in NMNAT2 luciferase activity at >25 μM.)
19,COc1cccc(CNC(=O)c2ccc3c(c2)c(C)c(C)n3Cc2ccccc2F)c1 [BC20196],+ (“+” >25% increase in NMNAT2 luciferase activity at >25 μM.)
20,Cc1c(C)n(Cc2ccccc2F)c2ccc(C(=O)NCc3ccncc3)cc12 [BC20197],++ (“++” >25% increase in NMNAT2 luciferase activity at >1 μM ≤25 μM.)
21,CCCCN(CC)Cc1ccc(CNC(=O)c2ccc3c(c2)c(C)c(C)n3Cc2ccccc2F)o1 [BC20198],+++ (“+++” >25% increase in NMNAT2 luciferase activity at ≤1 μM.)
22,Cc1ccccc1Cn1c(C)c(C)c2cc(C(=O)NCc3ccco3)ccc21 [BC20199],++ (“++” >25% increase in NMNAT2 luciferase activity at >1 μM ≤25 μM.)
23,Cc1ccc(CNC(=O)c2ccc3c(c2)c(C)c(C)n3Cc2ccccc2C)o1 [BC20200],++ (“++” >25% increase in NMNAT2 luciferase activity at >1 μM ≤25 μM.)
